Key:
[1] = system: Vero cells; settings: copied and converted to µM from µg/ml, ref not given; cited from earlier work
[2] = system: LACV; assay: Antiviral efficacy against LACV in Vero cells, virus titer by plaque assay; type: cell-based; settings: La Crosse virus, LACV 0.1 MOI, 24 hpi, read-out: EC50 (50% reduction in virus titer)
Protocol: (§1) Cells were seeded in 24-well plates (1 × 10^5 cells/well) and infected with LACV (0.1 MOI). At 1 hour post infection (hpi), medium was replaced with fresh medium containing 6 different concentrations for each of the drugs. RBV and FAV were tested at concentrations of 1, 3, 10, 30, 100, and 300 μM, while NHC was tested at concentrations of 0.1, 0.3, 1, 3, 10 and 30 μM. DMSO was used as vehicle control. At 24 hpi, the cell supernatant was harvested, centrifuged to eliminate cell debris and stored at −80 °C for sequencing (described below) and plaque assay following the method of Ojha et al. 2021 [32]. Quantified virus titers were plotted to represent antiviral efficacy. The EC50 (50% effective concentration representing a 50% reduction in virus titer) was determined by extrapolating a dose-response curve using GraphPad Prism 8 and 9.

[3] = system: LACV; assay: Antiviral efficacy against LACV in hNSCs, virus titer by plaque assay; type: cell-based; settings: La Crosse virus, LACV 0.1 MOI, 24 hpi, read-out: EC50 (50% reduction in virus titer)
Protocol: as §1

[4] = system: hNSCs; settings: copied and converted to µM from µg/ml, ref not given; cited from earlier work
[5] = system: LACV; assay: Antiviral efficacy against LACV in N2a cells, virus titer by plaque assay; type: cell-based; settings: La Crosse virus, LACV 0.1 MOI, 24 hpi, read-out: EC50 (50% reduction in virus titer)
Protocol: as §1

[6] = system: LACV; assay: MPID-NGS mutation rate of LACV in cell culture; type: cell-based, La Crosse virus; settings: Vero cells; RBV, FAV: increase only at 100 μM; NHC also in hNSCs and N2a
Protocol: as §1
(§2) We used a Primer ID (PID) library preparation approach with Illumina MiSeq next-generation sequencing (NGS) to examine the mutagenic effects of these drugs on viral RNA allowing deep coverage of the viral population while maintaining a low method error rate (1 in 10,000 nucleotides). We designed cDNA primers targeting a 372 bp region of the RdRp gene within the L segment (referred as L7 in the study), and included a second amplicon covering a 455 bp portion of the M segment (referred as M4 in the study). Each cDNA primer included a block of random nucleotides (11 bases long) as the Primer ID/unique molecular identifier (UMI). […] After gel purification/extraction of the PCR product (Qiagen MinElute Gel Extraction kit), the extracted libraries were quantified using a Qubit fluorimeter and subjected to Agilent TapeStation analysis. For each sequencing run, 24 quantified libraries were pooled for MiSeq 300 base paired-end sequencing at the UNC High Throughput Sequencing Facility. […] Each type of substitution rate was calculated against the wildtype sequence at the sequenced regions. The sequencing date were submitted to the National Center for Biotechnology Information (NCBI) Sequence Read Archive (SRA), accession number is PRJNA1092655.

[7] = system: LACV; assay: MPID-NGS mutation rate of LACV RNA in brain tissue, IN-infected mice; type: in vivo, C57BL/6 mice; settings: IN infection
From the text: as §2, with “(UMI). Extracted viral RNA was reversed transcribed using SuperScript III (Thermal Fisher) to make cDNA in a single reaction with the two different cDNA primers.” for “(UMI).”, “PRJNA1092655. […]” for “PRJNA1092655.”

[8] = system: LACV; assay: LACV encephalitis mouse model, IN inoculation; type: in vivo, C57BL/6 mice
Protocol: (§3) Viral RNA was isolated using the Zymo Direct-zol RNA MiniPrep Kit (Zymo Research) per the manufacturer’s directions. First-strand complementary DNA (cDNA) was generated using iScript Reverse Transcriptase (Bio-Rad). qRT-PCR was performed using PowerUp SYBR Green Master Mix (ThermoFischer) on QuantStudio 6 (Applied Biosystems). Primers used for the reaction were synthesized by Integrated DNA Technologies (IDT) to quantify LACV viral RNA, targeting the M segment of the genome: forward primer 5’-[…]-3’, reverse primer 5’-[…]-3’.
(§4) All animal experiments were performed following the protocols 2019-023-E and 2022-019-E approved by the National Institute of Allergy and Infectious Disease/National Institutes of Health/Rocky Mountain Laboratories Institutional Animal Care and Use Committee. For this study, a mix of male and female C57BL/6 mice at 23 to 25 days old were used. Mice were divided evenly and infected with LACV at either 1 × 10^3 pfu by an IP route or 1 x 10^2 pfu by an IN route. IP-infected mice were started on treatment with MOV at either the date of infection or at 3 dpi; the IN-infected mice were started on treatment on the day of infection. MOV was diluted in 10% polyethylene glycol (PEG), 2.5% Cremophor RH40, and 87.5% sterile water which was used as vehicle control. For oral administration, 300 mg/kg of MOV twice a day was given for up to 10 consecutive days using a straight 24-gauge ball-tip disposable feeding needle (Instech). Mice were examined twice daily for 28–30 days for clinical signs of LACV-induced neurologic disease, which mostly involved limb paralysis, ataxia, or repeated seizures. Mice showing one or more of these clinical symptoms were scored as having clinically significant disease and were subsequently euthanized for tissue removal. Occasionally, LACV-infected mice died from the acute seizures. These mice were also scored as having clinically significant disease and underwent tissue removal when possible.
(§5) Brain tissue and lymph nodes were harvested from mice with clinical symptoms (as described above) or at 5 dpi and stored at -80°C. Half of the sagittal section of the brain tissue was used for plaque assays, and the other half for RNA isolation for qRT-PCR and sequencing. For the plaque assay, brain tissues were homogenized in the presence of DMEM using the Bead Mill 24 (Fisher Scientific) homogenizer at 5,300 rpm for 25 seconds. Homogenized samples were centrifuged at 5000 x g for 10 min. Supernatants were then diluted in DMEM containing 10% FBS to 10^−1 to 10^−7 dilutions and subjected to a plaque assay.

[9] = system: LACV; assay: LACV encephalitis mouse model, IP inoculation; type: in vivo, C57BL/6 mice
Protocol: as §3, §4, §5
We used a digital scanner to scan the plaque assay plates. Digitized images were imported into FIJI/ImageJ v1.52n, and pixel calibration values were calculated based on the well diameter and corresponding digitized image. To quantify plaque size (surface area), wells with clearly isolated plaques were selected for segmentation and analysis. The image lookup table for each well was inverted followed by binarization prior to analysis, with a minimum area of 0.39 mm^2 to eliminate false positives due to slight variations in crystal violet staining. The measurements were imported into Microsoft Excel for data compilation, and graphed and analyzed using GraphPad Prism v9.3.1. Analysis of plaque size was done only when the plaque assays for different virus samples were done in parallel.

[10] = system: LACV; assay: MPID-NGS mutation rate of LACV RNA in brain tissue, IP-infected mice; type: in vivo, C57BL/6 mice
From the text: We used a Primer ID (PID) library preparation approach with Illumina MiSeq next-generation sequencing (NGS) to examine the mutagenic effects of these drugs on viral RNA allowing deep coverage of the viral population while maintaining a low method error rate (1 in 10,000 nucleotides). We designed cDNA primers targeting a 372 bp region of the RdRp gene within the L segment (referred as L7 in the study), and included a second amplicon covering a 455 bp portion of the M segment (referred as M4 in the study). Each cDNA primer included a block of random nucleotides (11 bases long) as the Primer ID/unique molecular identifier (UMI). Extracted viral RNA was reversed transcribed using SuperScript III (Thermal Fisher) to make cDNA in a single reaction with the two different cDNA primers. After bead purification, the cDNA was amplified by PCR using a mixture of forward primers and a universal reverse primer, followed by a second round of PCR to incorporate Illumina sequencing adapters and barcodes within the amplicons. After gel purification/extraction of the PCR product (Qiagen MinElute Gel Extraction kit), the extracted libraries were quantified using a Qubit fluorimeter and subjected to Agilent TapeStation analysis. For each sequencing run, 24 quantified libraries were pooled for MiSeq 300 base paired-end sequencing at the UNC High Throughput Sequencing Facility. Primers used for the library prep can be found in S1 Table. The initial Primer ID data were processed using the Illumina bcl2fastq pipeline (version 2.20.0), and then template consensus sequences (TCSs) were constructed using the tcs pipeline version 2.5.1 (https://primer-id.org/). Each type of substitution rate was calculated against the wildtype sequence at the sequenced regions. The sequencing date were submitted to the National Center for Biotechnology Information (NCBI) Sequence Read Archive (SRA), accession number is PRJNA1092655.
All animal experiments were performed following the protocols 2019-023-E and 2022-019-E approved by the National Institute of Allergy and Infectious Disease/National Institutes of Health/Rocky Mountain Laboratories Institutional Animal Care and Use Committee. For this study, a mix of male and female C57BL/6 mice at 23 to 25 days old were used. Mice were divided evenly and infected with LACV at either 1 × 10^3 pfu by an IP route or 1 x 10^2 pfu by an IN route. […] Mice showing one or more of these clinical symptoms were scored as having clinically significant disease and were subsequently euthanized for tissue removal. […] These mice were also scored as having clinically significant disease and underwent tissue removal when possible.

[11] = day 5, MOV from day 0, IP infection
[12] = oral MOV, started on the day of infection

## NC(=O)c1nc(F)c[nH]c1=O [FAV, favipiravir]
[1]
  CC50: 3340 µM
[2]
  EC50: 58.3 µM
[3]
  EC50: 206 µM
[4]
  CC50: 1060 µM
[5]
  EC50: 30.1 µM
[6]
  mutation rate of LACV grown in presence of drug: did not see a significant increase in mutation rates

## CC(C)C(=O)OC[C@H]1O[C@@H](n2ccc(NO)nc2=O)[C@H](O)[C@@H]1O [MOV, molnupiravir]
[7]
  increase in C-to-U mutations vs vehicle: 4.3 per 10,000 bases
  increase in G-to-A mutations vs vehicle: 4.3 per 10,000 bases
[8]; MOV 300 mg/kg oral twice daily, IN infection, vehicle 7
  mice with clinical signs out of 13: 4
[8]; MOV oral from day of infection, IN infection
  reduction in disease vs vehicle: ~50%
[8]; clinical mice, IN infection
  infectious virus titer in the brain vs vehicle (plaque assay): slightly, but not significantly decreased
  viral RNA in the brain vs vehicle (qRT-PCR): significantly decreased
[8]; virus administered intranasally
  disease reduced by (abstract): 23%
[9]; MOV 300 mg/kg oral twice daily, delayed until 3 dpi, LACV 10^3 pfu IP
  mice survived through 28-30 dpi: 15%
[9]; MOV 300 mg/kg oral twice daily, started on the day of infection, LACV 10^3 pfu IP
  mice survived to 28-30 dpi: 31%
[9]; [11]
  infectious virus titer in brain tissue vs vehicle (plaque assay): significantly decreased
  viral RNA load in brain tissue vs vehicle (qRT-PCR): significantly decreased
  viral RNA load in lymph nodes vs vehicle (qRT-PCR): significantly decreased
[9]; [12]
  decrease in neurological disease development: 31%
  mice survived out of 13: 4
[9]; virus isolated from brain, IP infection
  average plaque size of virus from brain vs virus not exposed to MOV: significantly smaller
[10]; brain tissue, IP infection
  increase in C-to-U transition rate vs vehicle: 9.1 per 10,000 bases
  increase in G-to-A transition rate vs vehicle: 5.2 per 10,000 bases
[10]; brain tissue, IP infection, averaged across amplicons
  increase in total mutation rate of the virus vs vehicle: 2.8 per 10,000 bases
[10]; estimate from mutation rate vs LACV copy number
  decrease in viral load in brain tissue per 1 mutation increase per 10,000 nucleotides: approximately 4.4 fold

Source: publication PMC11493283, “N^4-Hydroxycytidine/molnupiravir inhibits RNA virus-induced encephalitis by producing less fit mutated viruses” (PLOS Pathogens, 2024)
